Measurements as given in patent publication US6737429B2, “Pyrrole derivatives” (Hoffmann-La Roche Inc., priority 2000, dated 2004).

What was measured:
HIV-1 RT = HIV-1 RT (Human immunodeficiency virus type 1 group M subtype B, UniProt P04585); experiment: HIV-1 Reverse Transcriptase Assay: Inhibitor IC50 Determination; assay type: biochemical; conditions: purified recombinant enzyme, poly(rA)/oligo(dT)16 template-primer, 37° C. 30 min
Protocol: HIV-1 Reverse Transcriptase Assay: Inhibitor IC50 Determination.
HIV-1 RT assay was carried out in 96-well Millipore filtermat NOB50 plates using purified recombinant enzyme and a poly(rA)/oligo(dT)16 template-primer in a total volume of 50 μL. The assay constituents were 50 mM Tris/HCl, 50 mM NaCl, 1 mM EDTA, 6 mM MgCl2, 5 μM dTTP, 0.1 μCi [^3H] dTTP, 5 μg/ml poly (rA) pre annealed to 2.5 μg/ml oligo (dT)16 and a range of inhibitor concentrations in a final concentration of 10% DMSO. Reactions were initiated by adding 5 nM HIV-1 RT and after incubation at 37° C. for 30 min, they were stopped by the addition of 50 μl ice cold 20% TCA and allowed to precipitate at 4° C. for 30 min. The precipitates were collected by applying vacuum to the plate and sequentially washing with 2×200 μl of 10% TCA and 2×200 μl 70% ethanol. Finally the plates were dried and radioactivity counted in a Wallac Microbeta 1450 after the addition of 15 μl scintillation fluid per well. IC50's were calculated by plotting % inhibition versus log10 inhibitor concentrations.

[1] = tested on: HXB2-strain of HIV in MT4 cells; experiment: Antiviral assay: protection of HIV-infected MT4 cells from cell-death (MTT); assay type: cell-based; conditions: Human immunodeficiency virus 1, 120 h; MT4 cells infected with HXB2-strain of HIV, 5 d, MTT viability
Protocol: Anti-HIV antiviral activity was assessed using an adaptation of the method of Pauwels et al. {Pauwels et al., 1988, J Virol Methods 20:309-321}. The method is based on the ability of compounds to protect HIV-infected T lymphoblastoid cells (MT4 cells) from cell-death mediated by the infection. The endpoint of the assay was calculated as the concentration of compound at which the cell viability of the culture was preserved by 50% (‘50% inhibitory concentration’, IC50). The cell viability of a culture was determined by the uptake of soluble, yellow 3-[4,5-dimethylthiazol-2-yl]-2,5-diphenyltetrazolium bromide (MTT) and its reduction to a purple insoluble formazan salt. After solubilization, spectrophotometric methods were employed to measure the amount of formazan product.
MT4 cells were prepared to be in logarithmic-phase growth and a total of 2×10^6 cells infected with the HXB2-strain of HIV at a multiplicity of 0.0001 infectious units of virus per cell in a total volume of between 200-500 microliters. The cells were incubated with virus for one h at 37° C. before removal of virus. The cells are then washed in 0.01 M phosphate buffered saline, pH 7.2 before being resuspensed in culture medium for incubation in culture with serial dilutions of test compound. The culture medium used was RPMI 1640 without phenol red, supplemented with penicillin, streptomycin, L-glutamine and 10% fetal calf serum (GM10).
Test compounds were prepared as 2 mM solutions in dimethyl sulphoxide (DMSO). Four replicate, serial 2-fold dilutions in GM10 were then prepared and 50 microliters amounts placed in 96-well plates over a final nanomolar concentration range of 625-1.22. Fifty microliters GM10 and 3.5×10^4 infected cells were then added to each well. Control cultures containing no cells (blank), uninfected cells (100% viability; 4 replicates) and infected cells without compound (total virus-mediated cell death; 4 replicates) were also prepared. The cultures were then incubated at 37° C. in a humidified atmosphere of 5% CO2 in air for 5 d.
A fresh solution of 5 mg/mL MTT was prepared in 0.01 M phosphate buffered saline, pH 7.2 and 20 microliters added to each culture. The cultures were further incubated as before for 2 h. They were then mixed by pipetting up and down and 170 microliters of Triton X-100 in acidified isopropanol (10% v/v Triton X-100 in 1:250 mixture of concentrated HCl in isopropanol). When the formazan deposit was fully solubilized by further mixing, the absorbance (OD) of the cultures was measured at 540 nm and 690 nm wavelength (690 nm readings were used as blanks for artifacts between wells). The percent protection for each treated culture was calculated using the equation: [formula]

Row | Compound | IC50 (HIV-1 RT) [nM] | IC50 [1] [nM]
1 | COC(=O)NCc1c(C(C)C)c(Sc2cc(Cl)cc(Cl)c2)n(Cc2ccncc2)c1C | 90 | –
2 | CC(=O)NCc1c(C(C)C)c(Sc2cc(Cl)cc(Cl)c2)n(Cc2ccncc2)c1C | 198 | 32
3 | CC(=O)/C=C/c1cc(C(C)C)c(Sc2cc(Cl)cc(Cl)c2)n1Cc1ccncc1 | 972 | –
4 | CC(C)c1c(CO)c(CO)n(Cc2ccncc2)c1Sc1cc(Cl)cc(Cl)c1 | 60 | 10
5 | Cc1c(CO)c(-c2ccccc2)c(Sc2cc(Cl)cc(Cl)c2)n1Cc1ccncc1 | 493 | 407
6 | Cc1c(CO)c(C(C)C)c(Sc2cc(Cl)cc(Cl)c2)n1Cc1cccnc1 | 79 | 17.5
7 | Cc1c(CO)c(C(C)C)c(Sc2cc(Cl)ccc2Cl)n1Cc1ccncc1 | 86 | 69
8 | Cc1c(C#N)c(-c2ccccc2)c(Sc2cc(Cl)cc(Cl)c2)n1Cc1ccncc1 | 2450 | –
9 | Cc1c(CN=[N+]=[N-])c(C(C)C)c(Sc2cc(Cl)cc(Cl)c2)n1Cc1ccncc1 | 91 | 16
10 | Cc1c(CO)c(C(C)C)c(Sc2cccc(Cl)c2)n1Cc1cscn1 | 4120 | –
11 | Cc1c(C(C)C)c(Sc2cc(Cl)cc(Cl)c2)n(Cc2ccncc2)c1C | 125 | 94
12 | CC(C)c1cc(COC(N)=O)n(Cc2ccncc2)c1Sc1cc(Cl)cc(Cl)c1 | 33 | 16
13 | COCc1c(C(C)C)c(Sc2cc(Cl)cc(Cl)c2)n(Cc2ccncc2)c1C | 658 | 91
14 | CCc1c(CO)c(C(C)C)c(Sc2cc(Cl)cc(Cl)c2)n1Cc1ccncc1 | 43 | 11
15 | Cc1c(C(N)=O)c(C(C)C)c(Sc2cc(Cl)cc(Cl)c2)n1Cc1ccncc1 | 150 | 22
16 | Cc1c(CO)c(C(C)C)c(Sc2cc(Cl)cc(Cl)c2)n1C | 930 | 580
17 | Cc1c(CO)c(C(C)C)c(Sc2ccccc2)n1Cc1ccncc1 | 260 | 11.5
18 | Cc1c(CNC(=O)c2ccccc2)c(C(C)C)c(Sc2cc(Cl)cc(Cl)c2)n1Cc1ccncc1 | 283 | 84
19 | Cc1c(CO)c(C(C)C)c(Sc2ccc(F)cc2Cl)n1Cc1ccncc1 | 5430 | –
20 | Cc1cc(C(C)C)c(Sc2cc(Cl)cc(Cl)c2)n1Cc1ccncc1 | 117 | 44
21 | CC(C)c1c(CO)c(C(C)C)n(Cc2ccncc2)c1Sc1cccc(Cl)c1 | 272 | 110
22 | CC(C)c1cc(CO)n(Cc2ccncc2)c1Sc1cc(Cl)cc(Cl)c1 | 289 | 183
23 | Cc1c(CO)c(C)n(Cc2ccncc2)c1Sc1cc(Cl)cc(Cl)c1 | 287 | 49
